The values that follow come from US20260200920A1, “SUBSTITUTED AMINOPYRIDINE COMPOUNDS FOR USE AS AKT1 INHIBITORS” (Atavistik Bio, Inc., priority 2023, published 2026).

Assay [1] has as its target T1, human recombinant kinase full-length AKT1 E17K (Homo sapiens, UniProt P31749, E17K).
T1 construct: Purified human recombinant kinase full-length AKT1 E17K was expressed in insect cells; made in house; host or cells: insect cells
Kind of assay: AKT1 E17K kinase assay (TR-FRET, Lance). Type of assay: biochemical. Conditions: 0.6 nM AKT1 E17K, 50 nM Ulight-CREBtide, either 50 μM ATP or 2 mM ATP, 60 min at RT. In outline: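 IC50 came from a 10-point, 4-parameter fit of the 665/620 TR-FRET ratio read with Eu-anti-phospho-CREB (Ser133). Reaction at RT for 60 min after 15 min compound preincubation, using 0.6 nM PDPK1-activated full-length AKT1 E17K (insect-cell), 50 nM Ulight-CREBtide, ATP at 50 μM or 2 mM, HEPES pH 7.5, 1% DMSO.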
For orientation: In TR-FRET formats the signal depends on donor and acceptor labels being close together.

In assay [2] the target is T2, human recombinant kinase full-length wildtype AKT1 (Homo sapiens, UniProt P31749).
T2 construct: Purified human recombinant kinase full-length wildtype AKT1 was expressed in insect cells; made in house; host or cells: insect cells
T2 sequence (P31749 whole entry): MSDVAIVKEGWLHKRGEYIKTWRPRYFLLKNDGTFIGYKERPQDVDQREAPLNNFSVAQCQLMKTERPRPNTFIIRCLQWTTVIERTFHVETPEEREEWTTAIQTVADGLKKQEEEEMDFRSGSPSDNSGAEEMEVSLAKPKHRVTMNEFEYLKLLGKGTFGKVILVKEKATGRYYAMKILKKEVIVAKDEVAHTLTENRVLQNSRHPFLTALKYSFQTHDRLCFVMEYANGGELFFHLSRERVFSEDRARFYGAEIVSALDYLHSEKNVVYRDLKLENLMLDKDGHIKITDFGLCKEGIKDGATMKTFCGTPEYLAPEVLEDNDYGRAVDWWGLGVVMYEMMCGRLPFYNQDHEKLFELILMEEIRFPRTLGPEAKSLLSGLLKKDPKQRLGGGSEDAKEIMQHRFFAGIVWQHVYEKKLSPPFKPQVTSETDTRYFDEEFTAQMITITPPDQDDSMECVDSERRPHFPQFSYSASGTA
Kind of assay: AKT1 kinase assay (wildtype, TR-FRET, Lance). Type of assay: biochemical. Conditions: 0.6 nM wildtype AKT1, 50 nM Ulight-CREBtide, either 50 μM ATP or 2 mM ATP, 60 min at RT. The method, boiled down: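 TR-FRET 665/620 ratio quantified phospho-CREBtide formed by PDPK1-activated full-length human AKT1 (0.6 nM, insect-cell-derived) over 60 min at RT with 50 nM ULight-CREBtide and either 50 μM or 2 mM ATP. Compounds were preincubated 15 min with enzyme; IC50 came from 4-parameter fits of 10-point duplicates.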

Usually IC50 stands for the concentration that gives 50% inhibition.

Molecules are shown by their SMILES.

T1 sequence (P31749 whole entry E17K): as the sequence (P31749 whole entry) above, with E17K counted along it

On to `CC1(C)C[C@@H](CN2CC(c3ccc(-n4c(-c5cccnc5N)nc5ccc(-c6ccccc6)nc54)cc3)C2)CC[C@H]1C(=O)O` [Compound I-69, (1R,4S)-4-((3-(4-(2-(2-aminopyridin-3-yl)-5-phenyl-3H-imidazo[4,5-b]pyridin-3-yl)phenyl)azetidin-1-yl)methyl)-2,2-dimethylcyclohexane-1-carboxylic acid], for which the IC50 in assay [1] is under 500 nM; in assay [2] it was under 20000 nM.

Turning to `CC1(C)CN(C(=O)c2ccc(-n3c(-c4cccnc4N)nc4ccc(-c5ccccc5)nc43)cn2)CCC1C(=O)O` (centres unmarked) [Compound I-24, 1-(5-(2-(2-aminopyridin-3-yl)-5-phenyl-3H-imidazo[4,5-b]pyridin-3-yl)picolinoyl)-3,3-dimethylpiperidine-4-carboxylic acid], the IC50 in assay [1] was at least 2000 nM; in assay [2], under 20000 nM.

For `Nc1ncccc1-c1nc2ccc(-c3ccccc3)nc2n1-c1ccc(NC(=O)C2CC3(CC(C(=O)O)C3)C2)nc1` (centres unmarked) [Compound I-112, 6-((5-(2-(2-aminopyridin-3-yl)-5-phenyl-3H-imidazo[4,5-b]pyridin-3-yl)pyridin-2-yl)carbamoyl)spiro[3.3]heptane-2-carboxylic acid], the half-inhibitory concentration (IC50) was under 500 nM in assay [1] and under 20000 nM in assay [2].

Turning to `Nc1ncccc1-c1nc2ccc(-c3ccccc3)nc2n1-c1ccc(CN[C@H]2CC[C@@H](C(=O)O)CC2)cc1` [Compound I-91, (1s,4s)-4-((4-(2-(2-aminopyridin-3-yl)-5-phenyl-3H-imidazo[4,5-b]pyridin-3-yl)benzyl)amino)cyclohexane-1-carboxylic acid], the IC50 was under 500 nM in assay [1] and under 20000 nM in assay [2].

With `Nc1ncccc1-c1nc2ccc(OC(F)(F)F)cc2n1-c1ccc(NC(=O)[C@H]2CC[C@H](C(=O)O)CC2)nc1` [Compound I-123, (1r,4r)-4-((5-(2-(2-aminopyridin-3-yl)-6-(trifluoromethoxy)-1H-benzo[d]imidazol-1-yl)pyridin-2-yl)carbamoyl)cyclohexane-1-carboxylic acid], the 50% inhibitory concentration (IC50) is at least 2000 nM in assay [1] and under 20000 nM in assay [2].

Take `Cc1c(-n2c(-c3cccnc3N)nc3ccc(-c4ccccc4)nc32)ccc(NC(=O)[C@H]2CC[C@H](C(=O)O)CC2)c1F` [Compound I-103, (1r,4r)-4-((4-(2-(2-aminopyridin-3-yl)-5-phenyl-3H-imidazo[4,5-b]pyridin-3-yl)-2-fluoro-3-methylphenyl)carbamoyl)cyclohexane-1-carboxylic acid]: the half-maximal inhibitory concentration (IC50) is at least 2000 nM in assay [1] and under 20000 nM in assay [2].

For the compound `Nc1ncccc1-c1nc2ccc(-c3ccccc3)cc2n1-c1ccc(NC(=O)[C@H]2CC[C@H](C(=O)O)CC2)nc1` [Compound I-32, (1r,4r)-4-((5-(2-(2-aminopyridin-3-yl)-6-phenyl-1H-benzo[d]imidazol-1-yl)pyridin-2-yl)carbamoyl)cyclohexane-1-carboxylic acid], the 50% inhibitory concentration (IC50) in assay [1] was 500 to 2000 nM; in assay [2] it was under 20000 nM.

For `CN(Cc1ccc(-n2c(-c3cccnc3N)nc3ccc(-c4ccccc4)nc32)cc1)C1CC[C@@H](C(=O)O)C1` (some centres unmarked) [Compound I-173], the half-inhibitory concentration (IC50) is 500 to 2000 nM in assay [1] and under 20000 nM in assay [2].

`Cc1nc(NC(=O)[C@H]2CC[C@H](C(=O)O)CC2)ccc1-n1c(-c2cccnc2N)nc2ccc(-c3ccccc3)nc21` [Compound I-118, (1r,4r)-4-((5-(2-(2-aminopyridin-3-yl)-5-phenyl-3H-imidazo[4,5-b]pyridin-3-yl)-6-methylpyridin-2-yl)carbamoyl)cyclohexane-1-carboxylic acid]: the concentration for half-maximal inhibition (IC50) in assay [1] was under 500 nM; in assay [2] it was under 20000 nM.

Consider `Nc1ncccc1-c1nc2ccc(-c3ccccc3)nc2n1-c1ccc(C2CCN(C(=O)[C@H]3CC[C@@H](C(=O)O)CC3)CC2)cc1` [Compound I-199], for which the half-inhibitory concentration (IC50) was under 500 nM in assay [1] and under 20000 nM in assay [2].
